Legend:
[1] = Radiation dosimetry for major organs of 25-g mice (OLINDA, MOBY phantom); type: in vivo, mouse
Experimental: Internal dosimetry estimates were calculated using the organ level internal dose assessment (OLINDA) software v.2.2 following our previously published procedures. These estimates were performed for the mouse using the 25g MOBY phantom, and for the tumors using the previously reported unit density sphere model. Both the phantom and the sphere model are available in OLINDA and require the input of the total number of decays normalized by injected activity in units of MBq×h/MBq for each of the source organ/tumor.
The biodistribution data (available in Table S5-S7) were used to determine the kinetics input values required by OLINDA. First, each of the values was decayed to its corresponding time point (the values on the table are shown at injection time). Then the different time-points of the uptake data (%ID/g) for each organ were fitted to both mono-exponential (%ID/g = ae^⎯bt) and bi-exponential (%ID/g = ae^⎯bt + ce^⎯dt) functions using in-house software developed in Python. The best fit was selected based on maximizing the coefficient of determination (R^2) of the fit and minimizing the residuals. The areas under the curves were analytically calculated based on the parameters obtained from the best fit of each organ and this provided the kinetic input values required by OLINDA.
In the mouse case, the adrenals, blood, fat, and muscle are not modeled in the phantom. These organs were grouped together and included in what OLINDA calls the remainder of the body. Lastly, the numbers of decays in the tumors were also calculated based on the biodistribution data of the mice and the values were inputted into the sphere model available in OLINDA.

[2] = tested on: LNCaP tumor-bearing mice; test: Radioligand therapy study in LNCaP tumor-bearing mice; type: in vivo, mouse
Experimental: (§1) Imaging, biodistribution and radioligand therapy experiments were performed following previously published procedures using male NOD-scid IL2Rg^null (NSG) or NOD.Cg-Rag1^tm1MomIl2rg^tm1Wjl/SzJ (NRG) mice [10]-[12],[14]-[15]. The experiments were conducted according to the guidelines established by the Canadian Council on Animal Care and approved by Animal Ethics Committee of the University of British Columbia. The mice were briefly sedated by inhalation of 2% isoflurane in oxygen, and implanted subcutaneously with 1×10^7 LNCaP cells behind the left shoulder. The mice were imaged or used in biodistribution studies when the tumor grew to 5-8 mm in diameter over a period of 4-5 weeks.
For radiotherapy study, tumor-bearing mice were injected with saline (the control group), [^177Lu]Lu-PSMA-617 (37 MBq) or [^177Lu]-HTK03170 (37, 18.5 and 9.3 MBq) (n = 7-8 per treatment group). Tumor size and body weight were measured twice a week from the date of injection (Day 0) until completion of the study (Day 180). Endpoint criteria were defined as > 20% weight loss, tumor volume > 1000 mm^3, or active ulceration of the tumor.

[3] = tested on: LNCaP tumor-bearing mice; test: Ex vivo biodistribution in LNCaP tumor-bearing mice; set-up: species or system mouse
Experimental: as §1
For biodistribution studies, the mice were injected with the radioligand (2-4 MBq) as described above. For blocking, the mice were co-injected with nonradioactive DCFPyL (0.5 mg). At predetermined time points, the mice were sedated by isoflurane inhalation and euthanized by CO2 inhalation. Blood was withdrawn by cardiac puncture, and organs/tissues of interest were collected, weighed and counted using an automatic gamma counter (Tables S4-S7).

COc1ccc(CCCC(=O)NCC(=O)N[C@@H](CCCCNC(=O)CN2CCN(CC(=O)[O-])CCN(CC(=O)[O-])CCN(CC(=O)[O-])CC2)C(=O)NC[C@H]2CC[C@H](C(=O)N[C@@H](Cc3c4ccccc4cc4ccccc34)C(=O)NCCCC[C@H](NC(=O)N[C@@H](CCCC(=O)O)C(=O)O)C(=O)O)CC2)cc1.[177Lu+3] [[^177Lu]Lu-HTK03170]
Kinetics value ([1]; source organ Brain): 2.55E-02 MBq-h/MBq
Kinetics value ([1]; source organ Cortical bone): 1.91E-01 MBq-h/MBq
Kinetics value ([1]; source organ Heart): 7.94E-02 MBq-h/MBq
Kinetics value ([1]; source organ Kidneys): 1.33E+00 MBq-h/MBq
Kinetics value ([1]; source organ Large intestine contents): 1.12E-01 MBq-h/MBq
Kinetics value ([1]; source organ Liver): 1.24E+00 MBq-h/MBq
Kinetics value ([1]; source organ Lungs): 6.60E-02 MBq-h/MBq
Kinetics value ([1]; source organ Pancreas): 4.12E-02 MBq-h/MBq
Kinetics value ([1]; source organ Remainder of the body): 4.23E+00 MBq-h/MBq
Kinetics value ([1]; source organ Small intestine): 3.35E-01 MBq-h/MBq
Kinetics value ([1]; source organ Spleen): 1.04E-01 MBq-h/MBq
Kinetics value ([1]; source organ Stomach): 1.32E-02 MBq-h/MBq
Kinetics value ([1]; source organ Testes): 9.21E-02 MBq-h/MBq
Kinetics value ([1]; source organ Thyroid): 5.15E-03 MBq-h/MBq
Kinetics value ([1]; source organ Urinary bladder): 1.11E+00 MBq-h/MBq
Median survival ([2]; 9.3 MBq injected): 90 days
Median survival ([2]; 18.5 MBq injected): 131 days
Body weight of the treated mice ([2]; 37 MBq injected): continuously increasing body weight
Median survival ([2]; 37 MBq injected): > 180 days
Adrenal glands uptake ([3]; 1 h post-injection): 3.34 ± 0.45 %ID/g
Blood uptake ([3]; 1 h post-injection): 16.9 ± 1.97 %ID/g
Blood:Salivary gland uptake ratio ([3]; 1 h post-injection): 7.04 ± 0.86
Bone uptake ([3]; 1 h post-injection): 0.89 ± 0.27 %ID/g
Brain uptake ([3]; 1 h post-injection): 0.23 ± 0.04 %ID/g
Fat uptake ([3]; 1 h post-injection): 1.38 ± 0.45 %ID/g
Heart uptake ([3]; 1 h post-injection): 3.60 ± 0.52 %ID/g
Intestines uptake ([3]; 1 h post-injection): 1.19 ± 0.25 %ID/g
Kidneys uptake ([3]; 1 h post-injection): 13.2 ± 1.87 %ID/g
Lacrimal glands uptake ([3]; 1 h post-injection): 0.27 ± 0.08 %ID/g
Liver uptake ([3]; 1 h post-injection): 2.67 ± 0.37 %ID/g
Lungs uptake ([3]; 1 h post-injection): 8.06 ± 1.48 %ID/g
Muscle uptake ([3]; 1 h post-injection): 1.15 ± 0.19 %ID/g
Pancreas uptake ([3]; 1 h post-injection): 1.41 ± 0.31 %ID/g
Salivary glands uptake ([3]; 1 h post-injection): 2.43 ± 0.33 %ID/g
Spleen uptake ([3]; 1 h post-injection): 1.64 ± 0.83 %ID/g
Stomach uptake ([3]; 1 h post-injection): 0.59 ± 0.12 %ID/g
Testes uptake ([3]; 1 h post-injection): 2.17 ± 0.32 %ID/g
Thyroid uptake ([3]; 1 h post-injection): 2.90 ± 0.41 %ID/g
Tumor uptake ([3]; 1 h post-injection): 27.2 ± 7.55 %ID/g
Tumor:Blood uptake ratio ([3]; 1 h post-injection): 1.58 ± 0.26
Tumor:Kidney uptake ratio ([3]; 1 h post-injection): 2.07 ± 0.55
Tumor:Muscle uptake ratio ([3]; 1 h post-injection): 23.5 ± 4.66
Tumor:Salivary gland uptake ratio ([3]; 1 h post-injection): 11.3 ± 2.76
Adrenal glands uptake ([3]; 4 h post-injection): 1.78 ± 0.45 %ID/g
Blood uptake ([3]; 4 h post-injection): 8.34 ± 1.67 %ID/g
Blood:Salivary gland uptake ratio ([3]; 4 h post-injection): 6.48 ± 1.02
Bone uptake ([3]; 4 h post-injection): 0.45 ± 0.13 %ID/g
Brain uptake ([3]; 4 h post-injection): 0.13 ± 0.03 %ID/g
Fat uptake ([3]; 4 h post-injection): 0.60 ± 0.13 %ID/g
Heart uptake ([3]; 4 h post-injection): 1.91 ± 0.40 %ID/g
Intestines uptake ([3]; 4 h post-injection): 0.61 ± 0.17 %ID/g
Kidneys uptake ([3]; 4 h post-injection): 9.23 ± 2.18 %ID/g
Lacrimal glands uptake ([3]; 4 h post-injection): 0.15 ± 0.07 %ID/g
Liver uptake ([3]; 4 h post-injection): 1.89 ± 0.69 %ID/g
Lungs uptake ([3]; 4 h post-injection): 4.35 ± 0.82 %ID/g
Muscle uptake ([3]; 4 h post-injection): 0.58 ± 0.13 %ID/g
Pancreas uptake ([3]; 4 h post-injection): 0.74 ± 0.18 %ID/g
Salivary glands uptake ([3]; 4 h post-injection): 1.31 ± 0.30 %ID/g
Spleen uptake ([3]; 4 h post-injection): 0.96 ± 0.29 %ID/g
Stomach uptake ([3]; 4 h post-injection): 0.42 ± 0.15 %ID/g
Testes uptake ([3]; 4 h post-injection): 1.83 ± 0.58 %ID/g
Thyroid uptake ([3]; 4 h post-injection): 1.62 ± 0.42 %ID/g
Tumor uptake ([3]; 4 h post-injection): 47.6 ± 13.5 %ID/g
Tumor:Blood uptake ratio ([3]; 4 h post-injection): 5.81 ± 1.58
Tumor:Kidney uptake ratio ([3]; 4 h post-injection): 5.38 ± 1.91
Tumor:Muscle uptake ratio ([3]; 4 h post-injection): 83.1 ± 17.0
Tumor:Salivary gland uptake ratio ([3]; 4 h post-injection): 36.4 ± 5.35
Adrenal glands uptake ([3]; 24 h post-injection): 0.50 ± 0.16 %ID/g
Blood uptake ([3]; 24 h post-injection): 0.59 ± 0.13 %ID/g
Blood:Salivary gland uptake ratio ([3]; 24 h post-injection): 2.11 ± 0.47
Bone uptake ([3]; 24 h post-injection): 0.06 ± 0.04 %ID/g
Brain uptake ([3]; 24 h post-injection): 0.02 ± 0.01 %ID/g
Fat uptake ([3]; 24 h post-injection): 0.12 ± 0.04 %ID/g
Heart uptake ([3]; 24 h post-injection): 0.26 ± 0.04 %ID/g
Intestines uptake ([3]; 24 h post-injection): 0.18 ± 0.07 %ID/g
Kidneys uptake ([3]; 24 h post-injection): 5.80 ± 1.24 %ID/g
Lacrimal glands uptake ([3]; 24 h post-injection): 0.04 ± 0.03 %ID/g
Liver uptake ([3]; 24 h post-injection): 0.69 ± 0.27 %ID/g
Lungs uptake ([3]; 24 h post-injection): 0.72 ± 0.19 %ID/g
Muscle uptake ([3]; 24 h post-injection): 0.08 ± 0.02 %ID/g
Pancreas uptake ([3]; 24 h post-injection): 0.12 ± 0.03 %ID/g
Salivary glands uptake ([3]; 24 h post-injection): 0.28 ± 0.04 %ID/g
Spleen uptake ([3]; 24 h post-injection): 0.45 ± 0.10 %ID/g
Stomach uptake ([3]; 24 h post-injection): 0.25 ± 0.13 %ID/g
Testes uptake ([3]; 24 h post-injection): 0.64 ± 0.53 %ID/g
Thyroid uptake ([3]; 24 h post-injection): 0.37 ± 0.06 %ID/g
Tumor uptake ([3]; 24 h post-injection): 57.2 ± 15.3 %ID/g
Tumor:Blood uptake ratio ([3]; 24 h post-injection): 105 ± 57.4
Tumor:Kidney uptake ratio ([3]; 24 h post-injection): 10.5 ± 4.77
Tumor:Muscle uptake ratio ([3]; 24 h post-injection): 736 ± 333
Tumor:Salivary gland uptake ratio ([3]; 24 h post-injection): 202 ± 49.3
Adrenal glands uptake ([3]; 72 h post-injection): 0.27 ± 0.11 %ID/g
Blood uptake ([3]; 72 h post-injection): 0.06 ± 0.02 %ID/g
Blood:Salivary gland uptake ratio ([3]; 72 h post-injection): 0.57 ± 0.17
Bone uptake ([3]; 72 h post-injection): 0.03 ± 0.02 %ID/g
Brain uptake ([3]; 72 h post-injection): 0.01 ± 0.00 %ID/g
Fat uptake ([3]; 72 h post-injection): 0.04 ± 0.02 %ID/g
Heart uptake ([3]; 72 h post-injection): 0.09 ± 0.03 %ID/g
Intestines uptake ([3]; 72 h post-injection): 0.14 ± 0.11 %ID/g
Kidneys uptake ([3]; 72 h post-injection): 2.56 ± 0.62 %ID/g
Lacrimal glands uptake ([3]; 72 h post-injection): 0.01 ± 0.01 %ID/g
Liver uptake ([3]; 72 h post-injection): 0.36 ± 0.13 %ID/g
Lungs uptake ([3]; 72 h post-injection): 0.18 ± 0.04 %ID/g
Muscle uptake ([3]; 72 h post-injection): 0.02 ± 0.01 %ID/g
Pancreas uptake ([3]; 72 h post-injection): 0.04 ± 0.01 %ID/g
Salivary glands uptake ([3]; 72 h post-injection): 0.11 ± 0.03 %ID/g
Spleen uptake ([3]; 72 h post-injection): 0.38 ± 0.15 %ID/g
Stomach uptake ([3]; 72 h post-injection): 0.28 ± 0.33 %ID/g
Testes uptake ([3]; 72 h post-injection): 0.24 ± 0.04 %ID/g
Thyroid uptake ([3]; 72 h post-injection): 0.15 ± 0.01 %ID/g
Tumor uptake ([3]; 72 h post-injection): 59.3 ± 16.0 %ID/g
Tumor:Blood uptake ratio ([3]; 72 h post-injection): 1029 ± 459
Tumor:Kidney uptake ratio ([3]; 72 h post-injection): 24.0 ± 6.93
Tumor:Muscle uptake ratio ([3]; 72 h post-injection): 3374 ± 1417
Tumor:Salivary gland uptake ratio ([3]; 72 h post-injection): 566 ± 236
Adrenal glands uptake ([3]; 120 h post-injection): 0.23 ± 0.18 %ID/g
Blood uptake ([3]; 120 h post-injection): 0.02 ± 0.01 %ID/g
Blood:Salivary gland uptake ratio ([3]; 120 h post-injection): 0.31 ± 0.06
Bone uptake ([3]; 120 h post-injection): 0.02 ± 0.01 %ID/g
Fat uptake ([3]; 120 h post-injection): 0.04 ± 0.03 %ID/g
Heart uptake ([3]; 120 h post-injection): 0.05 ± 0.02 %ID/g
Intestines uptake ([3]; 120 h post-injection): 0.05 ± 0.06 %ID/g
Kidneys uptake ([3]; 120 h post-injection): 1.48 ± 0.44 %ID/g
Liver uptake ([3]; 120 h post-injection): 0.26 ± 0.11 %ID/g
Lungs uptake ([3]; 120 h post-injection): 0.07 ± 0.02 %ID/g
Muscle uptake ([3]; 120 h post-injection): 0.01 ± 0.01 %ID/g
Pancreas uptake ([3]; 120 h post-injection): 0.02 ± 0.02 %ID/g
Salivary glands uptake ([3]; 120 h post-injection): 0.05 ± 0.03 %ID/g
Spleen uptake ([3]; 120 h post-injection): 0.53 ± 0.35 %ID/g
Stomach uptake ([3]; 120 h post-injection): 0.08 ± 0.15 %ID/g
Testes uptake ([3]; 120 h post-injection): 0.16 ± 0.04 %ID/g
Thyroid uptake ([3]; 120 h post-injection): 0.09 ± 0.04 %ID/g
Tumor uptake ([3]; 120 h post-injection): 71.9 ± 19.4 %ID/g
Tumor:Blood uptake ratio ([3]; 120 h post-injection): 3996 ± 2182
Tumor:Kidney uptake ratio ([3]; 120 h post-injection): 46.4 ± 21.3
Tumor:Muscle uptake ratio ([3]; 120 h post-injection): 12778 ± 19955
Tumor:Salivary gland uptake ratio ([3]; 120 h post-injection): 1167 ± 531
Peaked tumor uptake relative to ^68Ga-labeled non-albumin-binder analog ([3]; mouse, in vivo): ~ 3 fold
Peaked average tumor uptake ([3]; peak over 1-120 h post-injection): ~ 60 %ID/g
Time of peak tumor uptake ([3]; post-injection, listed as 177Lu-labeled HTK03170): 4 to 24 h
